Reference: US20210236580A1, “Methods and Compositions for Mitigating Symptoms of Acute Respiratory Distress Syndrome” (Sytheon Ltd, priority 2020, published 2021)

Assays:
IL-6R = target: T1, IL-6R (Homo sapiens, UniProt P08887); settings: Covid-19 patients, after treatment; preliminary findings; cited from earlier work
T1 construct: host or cells: endogenous receptor in Covid-19 patients (in vivo)
T1 sequence (P08887 20-468): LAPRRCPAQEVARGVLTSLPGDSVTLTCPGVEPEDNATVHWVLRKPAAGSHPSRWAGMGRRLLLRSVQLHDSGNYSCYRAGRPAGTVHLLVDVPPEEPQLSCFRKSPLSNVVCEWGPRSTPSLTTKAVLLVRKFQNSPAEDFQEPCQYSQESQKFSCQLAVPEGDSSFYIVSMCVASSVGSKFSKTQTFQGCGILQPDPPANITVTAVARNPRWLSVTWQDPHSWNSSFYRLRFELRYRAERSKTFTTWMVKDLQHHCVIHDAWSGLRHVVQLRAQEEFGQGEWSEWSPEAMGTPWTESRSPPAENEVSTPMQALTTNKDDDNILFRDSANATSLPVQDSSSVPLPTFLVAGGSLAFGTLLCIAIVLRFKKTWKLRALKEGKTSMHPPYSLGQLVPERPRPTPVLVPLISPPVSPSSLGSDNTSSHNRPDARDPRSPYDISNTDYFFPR

interferon gamma = assay: IFN-γ in medium of LPS-exposed 3D ciliated airway tissues, sandwich ELISA; assay type: cell-based, human; settings: second value column of Table 6, 100 μg/ml
Description: (§6) The respective test materials were stored at room temperature and samples were solubilized in sterile water (LPS, TC, EMB) or DMSO (DEX) at 20 mg/ml, afterward all further dilutions were made in sterile distilled water. All test materials except LPS were assayed at 100 μg ml (LPS was added topically at 1 μg/ml on Day 2). Furthermore, TC and EMB were tested at 50 μg/ml and in two combinations: 50 μg/ml:50 μg/ml and 25 μg/ml:25 μg/ml. Samples were added to the feeder chamber medium contacting the basal side of the tissues on Day 1, then also topically on Day 2, together with LPS. All experimental conditions were tested in triplicates.
(§7) Twenty-four hours after pre-incubation with the test substances, the tissue cultures were exposed to 1 μg/ml endotoxin LPS and the incubation was continued for 48 additional hours. Following the incubation, the experiment tissue culture-conditioned medium was stored at −20° C. until further processing. Subsequently, IFN-α and IFN-γ were quantified in the tissue culture-conditioned medium by sandwich ELISA.

interferon alpha = assay: IFN-α in medium of LPS-exposed 3D ciliated airway tissues, sandwich ELISA; assay type: cell-based, human; settings: first value column of Table 6, 100 μg/ml
Description: as §6, §7

IL-8 [1] = assay: IL-8 secretion in LPS-induced human bronchial epithelial cells (HBEpC), ELISA; assay type: cell-based; settings: 48 hrs
From the text: (§1) HBEpC provide an excellent model for all aspects of respiratory epithelial function and diseases, particularly those related to airway viral/bacterial infections, including tissue repair mechanisms, signaling changes and potential treatments relevant to lung injuries, mechanical and oxidative stress, inflammation, etc., including that arising from or associated with pulmonary diseases and smoking. In this study, the inflammatory cytokines IL-6 and IL-8 were induced through pretreatment of the HBEpC with lipopolysaccharide (Cat #L2630, Sigma, Saint Louis, Mo.). After 3 hours of treatment the test and control materials were added to the cultures which were then incubated at […] for 48 hrs. Thereafter the IL-8 and IL-6 levels of the test cultures were measured by ELISA.
(§2) Each experimental condition and control were assayed at least in six replicates and statistical significance assessed with paired Student test. In conducting the assay, total insoluble proteins were quantified to determine the effect of the test materials on cell proliferation according to the method described by Voigt (Voigt, W. Sulforhodamine B assay and chemosensitivity. Methods Mol Med. 2005; 110:39-48).

IL-8 [2] = assay: IL-8 release by urban dust-stimulated human keratinocytes (ELISA); assay type: cell-based; settings: keratinocytes + 100 ug/ml urban dust, 24 hours; 100 μM (39 μg/ml)
Description: (§3) Human Keratinocyte Cell Culture: Human adult epidermal keratinocytes were grown using EpiLife Media (60 μM calcium) supplemented with 0.2% v/v bovine pituitary extract, 1 μg/ml recombinant human insulin-like growth factor-I, 0.18 µg/ml hydrocortisone, 5 μg/ml bovine transferrin, 0.2 ng/ml human epidermal growth factor. The cells were cultured at 37 C and 5% CO2. When a sufficient number of cells had been grown, they were seeded into 24-well plates and grown until confluent. Once confluent the cells were cultured overnight in hydrocortisone free EpiLife Media.
(§4) Preparation of Urban Dust & treatment: Urban dust was obtained from Sigma Chemicals (Standard Reference Material 1649b) and prepared at 10 mg/ml in hydrocortisone free EpiLife media. The urban dust solution was then sonicated for 10 minutes on ice. The test material was prepared in hydrocortisone free media supplemented with 100 ug/ml urban dust. […] Finally, one set of cells was not exposed to urban dust and was used to establish a baseline for each cytokine. […]
(§5) A series of standards was prepared and 100 μl of each of these standards was dispensed into two wells (duplicates) in the ELISA well plate. […] Once a sufficient level of color development had occurred, 50 μl of stop solution […]) was added to each well and the plate was read at 460 nm.

IL-6 [3] = assay: IL-6 secretion in LPS-induced human bronchial epithelial cells (HBEpC), ELISA; assay type: cell-based; settings: 48 hrs, 20 μM
From the text: as §1, §2

IL-6 [4] = assay: IL-6 release by urban dust-stimulated human keratinocytes (ELISA); assay type: cell-based; settings: keratinocytes + 100 ug/ml urban dust, 24 hours; 100 μM (39 μg/ml)
Description: as §3, §4, §5

IL-6 [5] = assay: IL-6 in LPS-exposed 3D ciliated airway tissue, sandwich ELISA; assay type: cell-based, human; settings: 1 μg/ml LPS, 48 hours, 100 μg/ml
Description: Further dilutions were made in sterile distilled water (dH2O). […] After three hours of incubation with test materials, cells were exposed to endotoxin—1 μg/ml LPS (lipopolysaccharides from Escherichia coli O113:H10, Associates of Cape Cod, East Falmouth, Mass.) and the incubation continued for an additional 48 hours.
The tissue cultures were then evaluated for IL-6 which was quantified by Sandwich Elisa. All colorimetric measurements were performed using Molecular Devices microplate reader MAX190 and SoftMax3.1.2PRO software. Statistical significance was assessed with paired Student test. Deviations of ≥20% as compared to water control with p values below 0.05 were considered statistically significant.

Actemra: humanized anti-IL-6R monoclonal antibody
effect on fevers (IL-6R): rapidly reduced fevers | patients experiencing a reduced need for supplemental oxygen (IL-6R): 75%

C[C@@H]1C[C@H]2[C@@H]3CCC4=CC(=O)C=C[C@]4(C)[C@@]3(F)[C@@H](O)C[C@]2(C)[C@@]1(O)C(=O)CO [Dexamethasone]
Interferon alpha (interferon gamma): 20 pg/mL | Interferon alpha (interferon alpha): 6 pg/mL | IL-8 (% control) (IL-8 [1]; 20 μM): 98 % control | IL-8 (% control) (IL-8 [1]; 40 μM): 91 % control | IL-8 (IL-8 [2]): 86.9 ± 24.5 pg/mL | IL-6 (% control) (IL-6 [3]): 77 % control | IL-6 (IL-6 [4]): 61.0 ± 13.9 pg/mL | IL-6 (% control) (IL-6 [5]): 123 % control
